Experimental data published in patent US8039430B2 (University of Wollongong, priority 2005, dated 2011).
Where a name gives a salt, the structure may show the parent alone.

Columns and labels:
[1] = test system: Multi-Drug-Resistant Staphylococcus epidermidis (ATCC 700562); test: MIC determination by micro-broth dilution (NCCLS), multi-drug-resistant S. epidermidis; type: cell-based; settings: ATCC700562, Example 1 compounds, Mueller Hinton II broth, 24 hours, 37° C.
Description: (§1) Antibacterial Assay Methods for Staphylococcus aureus Mu50 (ATCC 700699), Methicillin-Resistant Staphylococcus aureus (ATCC 43300), Multi-Drug-Resistant Staphylococcus epidermidis (ATCC 700562) Compounds
(§2) The compounds were stored at room temperature in the dark prior to use. Each compound was solubilized in DMSO to a final concentration of 40 mg/mL. The stock material was diluted to a concentration equivalent to two times the final in-well high test concentration (100 μg/mL for all experimental compounds) in Mueller Hinton II broth. […] Vancomycin and oxacillin were obtained from Sigma Aldrich Chemical Company and were used as positive and/or negative control compounds in the reported assays at high test concentrations of 100, 25 and 100 μg/mL respectively.
(§3) The bacterial strains employed in these assays were obtained from the American Type Culture Collection (ATCC). All of the bacterial strains were propagated as recommended by the ATCC. Each strain was stored as a frozen glycerol stock at −80° C. and a 10 μL loop of the frozen stocks was used to inoculate each culture for these assays.
(§4) The susceptibility of the above microorganisms to the test compounds was evaluated by determining the MIC of each compound using micro-broth dilution analysis according to the methods recommended by the NCCLS. All microbial strains were obtained from American Type Culture Collections (ATCC) and cultured according to the suppliers recommendations. Evaluation of the susceptibility of each organism against the test compounds included a positive control antibiotics Vancomycin and Oxacillin. For each organism, a standardized inoculum was prepared by direct suspension of freshly plated colonies in Mueller Hinton II broth to an optical density 625 nm (OD625) of 0.1 (equivalent to a 0.5 McFarland standard). The suspended inoculum was diluted to a concentration of approximately 1×10^6 colony forming units per milliliter (CFU/mL) and 100 μL placed into triplicate wells of a 96-well plate containing 100 μL of test compound serially diluted 2-fold in Mueller Hinton II broth. One hundred microliters of the inoculum was also added to triplicate wells containing 100 μL of two-fold serial dilutions of a positive control antibiotic and to wells containing 100 μL of media only. This dilution scheme yielded final concentrations for each microbial organism estimated to be 5×10^5 CFU/mL (verified by colony quantification on appropriate agar plates, data is not presented). Test compound concentrations ranged from a high-test of 1:2 (100 μg/mL)) to a low test of 1:2048 (0.1 μg/mL) using a two-fold dilution scheme. The plates were incubated for 24 hours at 37° C., and the microbial growth at each concentration of compound was determined by measuring the optical density at 625 nm on a Molecular Devices SpectraMax Plus-384 plate reader.
(§5) Microsoft Excel 2003 was used to analyze and graph the data, and the MIC (minimal inhibitory concentration) was determined from the resulting data.

[2] = test system: #987 E. faecium van B ST39; test: Antibacterial assay (MIC), VRE strain #987, Enterococossel Broth, Example 1; type: cell-based, Enterococcus faecium; settings: Enterococcus faecium; Example 1 compounds; VRE #987 E. faecium van B; 24 hrs, 37° C.; read-out: 987 (minimum inhibitory concentration)
Description: (§6) Antibacterial Assay Method for Staphylococcus aureus (ATCC 6538P) and Enterococcus faecium
(§7) #820 E. faecium van A ST17 #987 E. faecium van B ST39
(§8) Compounds are accurately weighed out (between approx. 1-2 mg) and dissolved in either 10% methanol/water (v/v) or 100% DMSO to a final stock concentration of 5 mg/ml.
(§9) Compounds are then diluted 1/10 in H2O to a test conc of 500 ug/ml ready for immediate use, or storage at −20° C.
(§10) Grow up an o/n starter culture of Staphylococcus aureus and each VRE strain by diluting previous culture (stored at 4° C.) 1/1000 into −50 mls Luria Broth (LB) for S. aureus or Enterococossel Broth (EB) for the VRE strains.
(§11) Incubate o/n at 37° C.+shaking. • A glycerol stock (0.6 mls bacterial culture, 0.3 mls glycerol) of each strain is kept at −80° C. if needed. Assay Set Up:
(§12) In a 96well round bottom plate add 50 ul LB/well for the S. aureus plate and add 50 ul EB/well for the VRE plates.
(§13) Add 50 ul of compound dilution (500 ug/ml test conc) to each of three top row wells (ie: tested in triplicate) and dilute 1 in 2 from the top row to the bottom row.
(§14) After the compound dilution, add to each well 50 ul of a 1/1000 dilution of the appropriate overnight bacterial culture, either S. aureus or the different VRE strains.
(§15) Plates are incubated at 37° C. on a slowly rotating plate incubator. • test concentrations are (in ug/ml) 125, 62.5, 31.25, 15.6, 7.8, 3.9, 1.9, 0.98 • final DMSO concentration in the first row of wells of the assay is 2.5% • Vancomycin is included in the assay (in triplicate) at a starting test concentration of 5 ug/ml for S. aureus and 125 ug/ml for the VRE strains Reading Results of Assay:
(§16) After incubation for 24 hrs the plates are removed and read. Inhibition of bacterial growth is indicated by lack of bacterial pellet or a clear well. In the VRE plates bacterial growth is indicated by black coloured media (EB) as well as a bacterial pellet.
(§17) Untreated control wells are included in the assay to check they all contain bacterial pellets. Uninoculated untreated control wells are included to check they all contain clear medium.
(§18) The plates are analysed for MIC and the results tabulated.

[3] = test system: Staphylococcus aureus (ATCC 6538P); test: Antibacterial assay (MIC), Staphylococcus aureus ATCC 6538P, Luria Broth, Example 1; type: cell-based; settings: Staphylococcus aureus, ATCC6538P; Example 1 compounds; S. aureus ATCC 6538P; 24 hrs, 37° C.; range if at least two of three values fell within it; read-out: Sa (minimum inhibitory concentration)
Description: as §6
Staphylococcus aureus (ATCC 6538P)
as §8, §9, §10, §11, §12, §13, §14, §15, §16, §17, §18

[4] = test system: #449 E. faecium van B ST17; test: Antibacterial assay (MIC), VRE strain #449, Enterococossel Broth, Example 1; type: cell-based, Enterococcus faecium; settings: Enterococcus faecium; Example 1 compounds; VRE #449 E. faecium van B; 24 hrs, 37° C.; read-out: 449 (minimum inhibitory concentration)
Description: as §6
(§19) VRE strains: #243 E. faecium van B ST17 #449 E. faecium van B ST17
as §8, §9, §10, §11, §12, §13, §14, §15, §16, §17, §18

[5] = test system: #820 E. faecium van A ST17; test: Antibacterial assay (MIC), VRE strain #820, Enterococossel Broth, Example 1; type: cell-based, Enterococcus faecium; settings: Enterococcus faecium; Example 1 compounds; VRE #820 E. faecium van A; 24 hrs, 37° C.; read-out: 820 (minimum inhibitory concentration)
Description: as §6, §7, §8, §9, §10, §11, §12, §13, §14, §15, §16, §17, §18

[6] = test system: Methicillin-Resistant Staphylococcus aureus (ATCC 43300); test: MIC determination by micro-broth dilution (NCCLS), methicillin-resistant S. aureus; type: cell-based; settings: ATCC43300, Example 1 compounds, Mueller Hinton II broth, 24 hours, 37° C.
Description: as §1, §2, §3, §4, §5

[7] = test system: #243 E. faecium van B ST17; test: Antibacterial assay (MIC), VRE strain #243, Enterococossel Broth, Example 1; type: cell-based, Enterococcus faecium; settings: Enterococcus faecium; Example 1 compounds; VRE #243 E. faecium van B; 24 hrs, 37° C.; read-out: 243 (minimum inhibitory concentration)
Description: as §6, §19, §8, §9, §10, §11, §12, §13, §14, §15, §16, §17, §18

[8] = test system: Staphylococcus aureus Mu50 (ATCC 700699); test: MIC determination by micro-broth dilution (NCCLS), S. aureus Mu50; type: cell-based; settings: ATCC700699, Example 1 compounds, Mueller Hinton II broth, 24 hours, 37° C.
Description: as §1, §2, §3, §4, §5

[9] = molecular target: T1, HIV integrase enzyme (Human immunodeficiency virus type 1 group M subtype B, UniProt P04585); test: HIV integrase initial screening (3′ processing function); type: biochemical; settings: Example 2 compounds; Conc. 50 μg/mL; 3′ processing function of the enzyme
T1 construct: against the HIV integrase enzyme
Text: Compounds synthesized in Example 2 were additionally included in a random database screening strategy against the HIV integrase enzyme.
The compounds that were chosen to be tested against HIV integrase were 78, 81, 88 and 89 and the results are represented in Table 4.
The results for the screening of the four target molecules 165-168 against the HIV integrase enzyme yielded some encouraging results which supported the proposed mechanism of binding in the active binding trench of the HIV integrase enzyme. The testing procedure for the four target compounds differed from the original screening protocols employed. The original screening measured inhibition against the 3′ processing function of the enzyme at the fixed concentration of 50 μg/mL, whereas the four target molecules were tested in an assay adapted from a literature procedure,^107 which measures inhibition against the 3′ strand transfer function of the enzyme. This allows a result to be obtained as an inhibition constant (IC50) concentration, which is the standard measurement of inhibition within the literature. Along with the four target molecules, 88 was also re-tested in the 3′ strand transfer assay to determine the IC50 for direct comparison with the literature.

MIC [1]	MIC [2]	MIC [3]	MIC [4]	MIC [5]	MIC [6]	MIC [7]	MIC [8]	Compound	inhibition at 50 µg/mL [9]
0.99 to 15.6 µg/mL	15.7 to 62.5 µg/mL	0.99 to 15.6 µg/mL	15.7 to 62.5 µg/mL	0.99 to 15.6 µg/mL	0.99 to 15.6 µg/mL	15.7 to 62.5 µg/mL	0.99 to 15.6 µg/mL	CC(C)CCOc1ccc2ccccc2c1-c1c(OCC(=O)N[C@H](CCCCN)C(=O)N[C@H](CCCNC(=N)N)C(=O)N[C@@H](CC(C)C)C(=O)OCc2ccccc2)ccc2ccccc12.Cl.Cl (atropisomer, axis not shown) [Compound 1]	
0.99 to 15.6 µg/mL	15.7 to 62.5 µg/mL	0.99 to 15.6 µg/mL	15.7 to 62.5 µg/mL	15.7 to 62.5 µg/mL	0.99 to 15.6 µg/mL	15.7 to 62.5 µg/mL	0.99 to 15.6 µg/mL	CC(C)CCOc1ccc2ccccc2c1-c1c(OCC(=O)N[C@H](CCCCN)C(=O)N[C@H](CCCNC(=N)N)C(=O)N[C@H](COCc2ccccc2)CC(C)C)ccc2ccccc12.Cl.Cl (atropisomer, axis not shown) [Compound 15]	
0.99 to 15.6 µg/mL	> 62.6 µg/mL	0.99 to 15.6 µg/mL	> 62.6 µg/mL	> 62.6 µg/mL	0.99 to 15.6 µg/mL	> 62.6 µg/mL	0.99 to 15.6 µg/mL	CC(C)CCOc1ccc2ccccc2c1-c1c(OCC(=O)N[C@H](CCCCN)C(=O)N[C@H](CCCNC(=N)N)C(=O)N[C@@H](CC(C)C)c2ncc(-c3ccccc3)o2)ccc2ccccc12.Cl.Cl (atropisomer, axis not shown) [Compound 16]	
0.99 to 15.6 µg/mL	15.7 to 62.5 µg/mL	< 0.98 µg/mL	15.7 to 62.5 µg/mL	15.7 to 62.5 µg/mL	0.99 to 15.6 µg/mL	15.7 to 62.5 µg/mL	0.99 to 15.6 µg/mL	CC(C)CCOc1ccc2ccccc2c1-c1c(OCC(=O)N[C@H](CCCCN)C(=O)N[C@H](CCCNC(=N)N)C(=O)N[C@@H](CC(C)C)c2nc(S(=O)(=O)O)c(-c3ccccc3)o2)ccc2ccccc12.Cl.Cl (atropisomer, axis not shown) [Compound 17]	
0.99 to 15.6 µg/mL	> 62.6 µg/mL	0.99 to 15.6 µg/mL	> 62.6 µg/mL	> 62.6 µg/mL	0.99 to 15.6 µg/mL	> 62.6 µg/mL	0.99 to 15.6 µg/mL	CC(C)CCOc1ccc2ccccc2c1-c1c(OCCNC(=O)[C@@H](CCCCN)NC(=O)[C@@H](CCCNC(=N)N)NC(=O)[C@@H](CC(C)C)NC(=O)Cc2ccccc2)ccc2ccccc12.Cl.Cl (atropisomer, axis not shown) [Compound 30]	

Further lines, the molecule ahead of its results:

Compound	MIC [1]	MIC [2]	MIC [3]	MIC [4]	MIC [5]	MIC [6]	MIC [7]	MIC [8]	inhibition at 50 µg/mL [9]
CC(C)CCOc1ccc2ccccc2c1-c1c(OCC(=O)N[C@H](CCCCN)C(=O)N[C@H](CCCNC(=N)N)C(=O)NC2(C(=O)OCc3ccccc3)CCCCC2)ccc2ccccc12.Cl.Cl (atropisomer, axis not shown) [Compound 21]	0.99 to 15.6 µg/mL	15.7 to 62.5 µg/mL	0.99 to 15.6 µg/mL	15.7 to 62.5 µg/mL	15.7 to 62.5 µg/mL	0.99 to 15.6 µg/mL	15.7 to 62.5 µg/mL	0.99 to 15.6 µg/mL	
Cl.Cl.N=C(N)NCCC[C@@H](NC(=O)CCCOc1ccc2ccccc2c1-c1c(OCCCC(=O)N[C@H](CCCNC(=N)N)C(=O)OCc2ccccc2)ccc2ccccc12)C(=O)OCc1ccccc1 (atropisomer, axis not shown) [Compound 31]	0.99 to 15.6 µg/mL	15.7 to 62.5 µg/mL	0.99 to 15.6 µg/mL	15.7 to 62.5 µg/mL	15.7 to 62.5 µg/mL	0.99 to 15.6 µg/mL	15.7 to 62.5 µg/mL	15.7 to 62.5 µg/mL	
C=CCOc1ccc(C[C@H](NC(C)=O)C(=O)N[C@@H](CCCCN)C(=O)N[C@@H](CC=C)C(=O)OC)cc1 [Compound 78, hydrochloride]									15%
C=CCOc1ccc(C[C@H](NC(C)=O)C(=O)N[C@@H](CCCNC(=N)N)C(=O)N[C@@H](CC=C)C(=O)OC)cc1 [Compound 81, Methyl(2S,5S,8S)-2-allyl-8-(4-allyloxybenzyl)-3,6,9-triaza-5-(3-[guanidino]propyl)-4,7,10-oxoundecanoate hydrochloride]									70%
C=CCOc1ccc(C[C@H](NC(C)=O)C(=O)N[C@@H](CCCCNC(=N)N)C(=O)N[C@@H](CC=C)C(=O)OC)cc1 [Compound 88, Methyl(2S,5S,8S)-2-allyl-9-(4-allyloxyphenyl)-5-(4-[guanidino]butyl)-3,6,9-triaza-4,7,10-trioxoundecanoate hydrochloride]									95%
COC(=O)[C@@H]1CC=CCOc2ccc(cc2)C[C@H](NC(C)=O)C(=O)N[C@@H](CCCCNC(=N)N)C(=O)N1 [Compound 89, (7S,10S,13S,4E/Z)-13-Acetamido-10-(4-[guanidino]butyl)-8,11-diaza-7-methoxycarbonyl-2-oxa-9,12-dioxo-1(1,4)phenylenacyclotetradecaphane-4-ene hydrochloride]									4%
